“Also recorded” adds a separate entry of the source.
Columns and labels:
[1] = system: Drosophila S2 cells; test: Energy deprivation-induced MRLC phosphorylation in Drosophila S2 cells (immunoblot); assay type: cell-based; conditions: 50 mM 2DG for 4 hr
[2] = system: LS174T cells; test: Polarization of LS174T cells (actin, polarity markers, brush border); assay type: cell-based, human
[3] = system: LS174T cells; test: AMPK and MRLC phosphorylation in LS174T cells (immunoblot / immunostaining); assay type: cell-based, human
[4] = system: AMPK holoenzyme purified from rat liver; test: In vitro kinase assay, AMPK holoenzyme purified from rat liver with GST-MRLC / GST-ACC2 substrates; assay type: biochemical; conditions: 0.3 mM AMP; for Phosphorylation of MRLC by AMPK in presence of inhibitor (32P autoradiography): 10 μM drug added to reaction mixture, GST-MRLC substrate
Source text: (§1) Fly strains. AMPK^D1 and AMPKD2 lines were generated by imprecise excision (Lee, et al., FEBS Lett. 550, 5-10 (2003)) of AMPK^G505 line (GenExel Inc.). UAS constructs were microinjected into w^1118 embryos. LKB1- and MRLC-mutant lines were described previously (Jordan et al., J. Cell Biol. 139, 1805-1819 (1997); (Karess et al., Cell 65, 1177-1189 (1991); (Lee et al., Cell Death Differ. 13, 110-1122 (2006)). Other lines were obtained from the Bloomington Stock Center. Microscopic analyses of Drosophila tissues. Dark field, phase contrast, and SEM analyses were performed to visualize embryonic cuticle structure. Immunostaining with various antibodies were performed to visualize embryonic epithelial structure. Brain squash preparation was used to analyze genomic integrity. Kinase assays. Phosphotransferase activities were determined in a reaction mixture consisting of HEPES-Brij Buffer, ATP (γ-^32P), and protein substrates. Protein levels were visualized by immunoblot or Coomassie staining. Phosphorylated proteins were visualized by phospho-specific immunoblot or ^32P-autoradiography. Incorporated phosphates were quantified using P81 filter binding assay. Drosophila strains. The AMPK^G505 fly line with an EP-element inserted at the AMPK locus was obtained from the Genisys Collection of EP lines (GenExel Inc., Korea), and subjected to standard imprecise excision (Lee, et al., FEBS Lett. 550, 5-10 (2003); (Lee et al., Cell Death Differ. 13, 110-1122 (2006)). HA-tagged AMPK (AMPK^WT) and its mutant forms (AMPK^KR, AMPK^TA and AMPK^TD) were subcloned into the pUAST vector and microinjected into w^1118 embryos. LKB1^X5, UAS-LKB1, spaghetti-squash^1 (sqh^1), and MRLC^EE (also referred to as sqh^EE) lines were described previously (Jordan et al., J. Cell Biol. 139, 1805-1819 (1997); (Karess et al., Cell 65, 1177-1189 (1991); (Lee et al., Cell Death Differ. 13, 110-1122 (2006)). […] Deletion sites of AMPK^D1 and AMPK^D2 were determined by genomic-PCR analyses. […]

[5] = system: Drosophila AMPK (dAMPK); test: In vitro kinase assay, immunoprecipitated Drosophila AMPK with MRLC substrate; assay type: biochemical; conditions: 10 μM drug added to reaction solution
Source text: as §1, with “strains.” for “strains. The AMPK^G505 fly line with an EP-element inserted at the AMPK locus was obtained from the Genisys Collection of EP lines (GenExel Inc., Korea), and subjected to standard imprecise excision (Lee, et al., FEBS Lett. 550, 5-10 (2003); (Lee et al., Cell Death Differ. 13, 110-1122 (2006)). HA-tagged AMPK (AMPK^WT) and its mutant forms (AMPK^KR, AMPK^TA and AMPK^TD) were subcloned into the pUAST vector and microinjected into w^1118 embryos. LKB1^X5, UAS-LKB1, spaghetti-squash^1 (sqh^1), and MRLC^EE (also referred to as sqh^EE) lines were described previously (Jordan et al., J. Cell Biol. 139, 1805-1819 (1997); (Karess et al., Cell 65, 1177-1189 (1991); (Lee et al., Cell Death Differ. 13, 110-1122 (2006)).”

[6] = system: human AMPK (hAMPK); test: In vitro kinase assay, immunoprecipitated human AMPK with MRLC substrate; assay type: biochemical; conditions: 10 μM drug added to reaction solution
Source text: as §1, with “strains.” for “strains. The AMPK^G505 fly line with an EP-element inserted at the AMPK locus was obtained from the Genisys Collection of EP lines (GenExel Inc., Korea), and subjected to standard imprecise excision (Lee, et al., FEBS Lett. 550, 5-10 (2003); (Lee et al., Cell Death Differ. 13, 110-1122 (2006)). HA-tagged AMPK (AMPK^WT) and its mutant forms (AMPK^KR, AMPK^TA and AMPK^TD) were subcloned into the pUAST vector and microinjected into w^1118 embryos. LKB1^X5, UAS-LKB1, spaghetti-squash^1 (sqh^1), and MRLC^EE (also referred to as sqh^EE) lines were described previously (Jordan et al., J. Cell Biol. 139, 1805-1819 (1997); (Karess et al., Cell 65, 1177-1189 (1991); (Lee et al., Cell Death Differ. 13, 110-1122 (2006)).”

[7] = system: human MLCK; test: In vitro kinase assay, active MLCK with MRLC substrate; assay type: biochemical; conditions: 10 μM drug added to reaction solution
Source text: as §1, with “strains.” for “strains. The AMPK^G505 fly line with an EP-element inserted at the AMPK locus was obtained from the Genisys Collection of EP lines (GenExel Inc., Korea), and subjected to standard imprecise excision (Lee, et al., FEBS Lett. 550, 5-10 (2003); (Lee et al., Cell Death Differ. 13, 110-1122 (2006)). HA-tagged AMPK (AMPK^WT) and its mutant forms (AMPK^KR, AMPK^TA and AMPK^TD) were subcloned into the pUAST vector and microinjected into w^1118 embryos. LKB1^X5, UAS-LKB1, spaghetti-squash^1 (sqh^1), and MRLC^EE (also referred to as sqh^EE) lines were described previously (Jordan et al., J. Cell Biol. 139, 1805-1819 (1997); (Karess et al., Cell 65, 1177-1189 (1991); (Lee et al., Cell Death Differ. 13, 110-1122 (2006)).”

## O=CC[C@@H](O)[C@H](O)[C@H](O)CO [2DG, 2-deoxyglucose]
[1]
  MRLC phosphorylation (pMRLC) in S2 cells: enhanced MRLC phosphorylation
[2]; 50 mM 2DG, 2 hr
  Distribution of villin, CD66/CEA and CD71/transferrin markers: became dramatically polarized
[2]; 50 mM 2DG, 2 hr, serum-free media
  Cell shape / actin cytoskeleton polarization and brush border-like structure: dramatic change in cell shape to have polarized actin cytoskeleton with a brush border-like structure
[3]; 50 mM 2DG, indicated time
  Activation of AMPK (pAMPK): activation of AMPK
[3]; 2DG treatment
  MRLC phosphorylation (pMRLC) in LS174T cells: 2DG-induced phosphorylation of MRLC

## Nc1ncnc2c1ncn2[C@@H]1O[C@H](COP(=O)(O)O)[C@@H](O)[C@H]1O [AMP]
[4]; human GST-MRLC substrate
  Phosphorylation of full-length MRLC by AMPK on addition of AMP: further enhanced

## c1cc(-c2cnn3cc(-c4ccc(OCCN5CCCCC5)cc4)cnc23)ccn1 [Compound C]
[2]; 2DG 2 hr, Compound C 10 μM 30 min before 2DG, or siRNA transfection, listed as CC
  2DG-induced actin polarization, effect of inhibitor or siRNA: inhibited; also recorded: suppressed
[4]
  Phosphorylation of MRLC by AMPK in presence of inhibitor (32P autoradiography): inhibited the phosphorylation
[5]
  Drosophila AMPK phosphorylation of MRLC in presence of drug: specifically inhibited
[3]; 10 μM Compound C 30 min before 50 mM 2DG
  2DG-induced MRLC phosphorylation, effect of inhibitor: suppressed
[6]
  Human AMPK phosphorylation of MRLC in presence of drug: specifically inhibited
[7]
  MLCK phosphorylation of MRLC in presence of drug: not

## O=S(=O)(c1cccc2c(I)cccc12)N1CCCNCC1 [ML-7]
[4]
  Phosphorylation of MRLC by AMPK in presence of inhibitor (32P autoradiography): did not
[5]
  Drosophila AMPK phosphorylation of MRLC in presence of drug: not
[7]
  MLCK phosphorylation of MRLC in presence of drug: specifically inhibited

Reference: US20090042810A1, “AMPK Deficient Animals, Screening Methods, And Related Therapeutics And Diagnostics” (GenExel-Sein, Inc., priority 2007, published 2009)
